# Measured values reported in paper PMC8364251 (Pharmacological Research, 2021).
# Columns and labels:
# Format in all cases: cell-based, SARS-CoV-2
# [1] = tested on: N501Y mutant S-pseudotyped lentivirus
# [2] = tested on: N439K mutant S-pseudotyped lentivirus
# [3] = tested on: Y453F mutant S-pseudotyped lentivirus
smiles,measurement,setting,value
"O=C(O[C@@H]1Cc2c(O)cc(O)cc2O[C@@H]1c1cc(O)c(O)c(O)c1)c1cc(O)c(O)c(O)c1 [EGCG, epigallocatechin gallate]",inhibition of mutant pseudovirus infection,[1],effectively inhibited the infection of all mutants
same,inhibition of mutant pseudovirus infection,[2],effectively inhibited the infection of all mutants
same,inhibition of mutant pseudovirus infection,[3],effectively inhibited the infection of all mutants
